ChEMBL document CHEMBL1201862, “PubChem BioAssay data set” (2004)
The source made the active and inactive calls.

Key:
[1] = biological target: T1, Sentrin-specific protease 8 (Homo sapiens, UniProt Q96LD8); assay type: functional
T1 sequence (Q96LD8 whole entry): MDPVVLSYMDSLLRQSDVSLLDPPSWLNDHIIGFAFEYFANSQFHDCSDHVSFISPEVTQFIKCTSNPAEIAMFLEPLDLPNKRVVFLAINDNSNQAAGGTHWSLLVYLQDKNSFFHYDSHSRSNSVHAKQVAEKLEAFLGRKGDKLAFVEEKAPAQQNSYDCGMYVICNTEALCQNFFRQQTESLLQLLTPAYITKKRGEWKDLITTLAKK

[2] = biological target: T1, Sentrin-specific protease 8; assay type: functional; remark: listed apart in the source
[3] = Counterscreen for inhibitors of Trypanosoma brucei methionyl tRNA synthetase (MetRS): Luminescence-based cell-based high throughput dose response assay to identify compounds that are cytotoxic to Jurkat human T lymphocyte cells.; assay type: functional
[4] = biological target: T2, Methionyl-tRNA synthetase, putative (Trypanosoma brucei brucei, UniProt Q38C91); assay type: functional, Trypanosoma brucei brucei strain 927/4 GUTat10.1
T2 sequence (Q38C91 whole entry): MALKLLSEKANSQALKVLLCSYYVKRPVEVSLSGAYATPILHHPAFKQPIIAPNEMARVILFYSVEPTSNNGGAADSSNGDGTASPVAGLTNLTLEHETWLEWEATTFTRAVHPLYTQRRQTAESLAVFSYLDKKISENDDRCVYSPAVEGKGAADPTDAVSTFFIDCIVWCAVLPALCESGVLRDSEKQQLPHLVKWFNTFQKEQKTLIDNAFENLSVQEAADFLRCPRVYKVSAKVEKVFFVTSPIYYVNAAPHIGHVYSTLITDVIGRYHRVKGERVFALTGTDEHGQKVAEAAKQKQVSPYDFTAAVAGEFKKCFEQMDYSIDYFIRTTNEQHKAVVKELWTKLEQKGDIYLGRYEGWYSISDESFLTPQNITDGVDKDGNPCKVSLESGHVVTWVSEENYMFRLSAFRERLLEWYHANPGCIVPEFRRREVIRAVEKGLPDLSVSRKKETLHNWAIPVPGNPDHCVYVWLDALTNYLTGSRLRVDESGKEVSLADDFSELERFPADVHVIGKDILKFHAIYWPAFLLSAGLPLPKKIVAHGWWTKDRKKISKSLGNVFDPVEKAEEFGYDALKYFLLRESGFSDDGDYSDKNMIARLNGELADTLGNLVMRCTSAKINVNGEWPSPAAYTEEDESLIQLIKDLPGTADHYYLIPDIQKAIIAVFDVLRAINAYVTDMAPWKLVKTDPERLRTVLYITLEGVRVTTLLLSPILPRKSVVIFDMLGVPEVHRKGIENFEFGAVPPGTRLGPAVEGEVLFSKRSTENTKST

[5] = biological target: T3, Rac GTPase-activating protein 1 (Homo sapiens, UniProt Q9H0H5); test: blockers of MgcRacGAP-driven Rac1 GTP hydrolysis – biochemical, ADP Hunter fluorescence, primary and confirmatory, confirmation (AID 624330); assay type: functional
T3 sequence (Q9H0H5 whole entry): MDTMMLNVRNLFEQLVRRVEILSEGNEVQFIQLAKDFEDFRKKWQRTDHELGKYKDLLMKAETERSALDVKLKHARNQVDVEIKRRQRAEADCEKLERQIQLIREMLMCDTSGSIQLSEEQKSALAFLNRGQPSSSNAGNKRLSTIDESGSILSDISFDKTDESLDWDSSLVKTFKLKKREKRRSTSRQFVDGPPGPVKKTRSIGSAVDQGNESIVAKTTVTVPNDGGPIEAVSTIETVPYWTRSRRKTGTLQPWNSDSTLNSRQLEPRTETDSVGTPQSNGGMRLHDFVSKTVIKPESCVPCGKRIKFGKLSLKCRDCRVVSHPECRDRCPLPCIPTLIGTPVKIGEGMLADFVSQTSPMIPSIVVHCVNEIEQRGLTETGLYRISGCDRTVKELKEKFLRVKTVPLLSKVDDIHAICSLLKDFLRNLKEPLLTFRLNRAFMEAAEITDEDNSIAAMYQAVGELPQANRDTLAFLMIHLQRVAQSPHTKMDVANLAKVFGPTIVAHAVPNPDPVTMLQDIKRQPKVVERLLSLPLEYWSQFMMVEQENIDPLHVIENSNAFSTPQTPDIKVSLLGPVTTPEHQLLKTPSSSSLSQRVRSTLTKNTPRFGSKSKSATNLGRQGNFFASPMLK

[6] = viability loss in HeLa cells – cytotoxicity control for MgcRacGAP inhibitor project, dose response (AID 624300); assay type: functional
Protein RecA = biological target: T4, Protein RecA (Mycobacterium tuberculosis, UniProt P9WHJ3); test: Fluorescence Cell-Free Homogeneous Dose Retest to Identify Inhibitors of RecA-Intein Splicing Activity. [Related pubchem assays (depositor defined):AID2097, AID2223, AID489010, AID492950]; assay type: functional
T4 sequence (P9WHJ3 whole entry): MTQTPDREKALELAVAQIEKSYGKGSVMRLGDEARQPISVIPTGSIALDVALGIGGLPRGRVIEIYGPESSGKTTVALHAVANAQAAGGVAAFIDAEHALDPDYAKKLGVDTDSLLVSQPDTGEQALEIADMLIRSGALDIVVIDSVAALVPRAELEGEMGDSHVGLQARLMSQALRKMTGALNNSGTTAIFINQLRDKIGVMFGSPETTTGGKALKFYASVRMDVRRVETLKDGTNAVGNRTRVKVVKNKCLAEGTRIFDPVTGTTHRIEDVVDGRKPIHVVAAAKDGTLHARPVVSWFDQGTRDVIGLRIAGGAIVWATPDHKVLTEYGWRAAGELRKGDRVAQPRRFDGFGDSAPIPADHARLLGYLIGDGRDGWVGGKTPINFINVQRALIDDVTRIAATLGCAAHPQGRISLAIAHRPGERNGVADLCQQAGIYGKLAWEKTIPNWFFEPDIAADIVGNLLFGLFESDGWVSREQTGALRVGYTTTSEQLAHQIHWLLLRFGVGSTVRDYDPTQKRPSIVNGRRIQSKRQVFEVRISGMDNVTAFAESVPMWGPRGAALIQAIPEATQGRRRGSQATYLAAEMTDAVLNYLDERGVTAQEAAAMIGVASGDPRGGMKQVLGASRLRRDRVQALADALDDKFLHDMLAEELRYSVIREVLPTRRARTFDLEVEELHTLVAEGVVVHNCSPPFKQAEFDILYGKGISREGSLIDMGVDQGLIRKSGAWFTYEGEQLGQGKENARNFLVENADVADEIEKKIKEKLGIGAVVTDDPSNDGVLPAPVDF

[7] = Fluorescence-based cell-based high throughput dose response assay for inhibitors of the interaction of nucleotide-binding oligomerization domain containing 2 (NOD2) and the receptor-interacting serine-threonine kinase 2 (RIPK2).; assay type: functional; settings: Homo sapiens
[8] = non-specific 3'UTR reporter inhibition in Clone20-Shn3RL – cell-based, Renilla luciferase, cherry-picked, counter-screen for Shn3 inhibitor project, dose response (AID 624133); assay type: functional
Beta Lactamase = Beta Lactamase (Pseudomonas aeruginosa, UniProt Q932Y6); test: BLA reporter interference, concentration series – BLA reporter cells, FRET fluorescence, artefact control for NOD2-RIPK2 interaction inhibitor project, dose response (AID 651552); assay type: functional, cell-based
[9] = reduction of Shn3 3'UTR-driven luciferase in osteoblasts – cell-based, Clone20 osteoblasts, firefly luciferase, cherry-picked, dose response (AID 624132); assay type: functional;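 note: firefly luciferase luminescence from reporter carrying the Shn3 3'UTR in osteoblasts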
[10] = reduced cellular PGC1a acetyl-lysine signal – cell-based, cherry-picked samples, dose response (AID 720514); assay type: functional;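 note: potency may reflect raised or lowered acetylation signal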
[11] = loss of viability in HepG2 cells – cell-based, CellTiter-Glo, cherry-picked, cytotoxicity control for Shn3 inhibitor project, dose response (AID 624134); assay type: functional
[12] = biological target: T5, Replicative DNA helicase DnaB (Mycobacterium tuberculosis, UniProt P9WMR3); test: DnaB intein splicing inhibitors, dose response, biochemical, cell-free fluorescence (AID 449749); assay type: functional
T5 sequence (P9WMR3 whole entry): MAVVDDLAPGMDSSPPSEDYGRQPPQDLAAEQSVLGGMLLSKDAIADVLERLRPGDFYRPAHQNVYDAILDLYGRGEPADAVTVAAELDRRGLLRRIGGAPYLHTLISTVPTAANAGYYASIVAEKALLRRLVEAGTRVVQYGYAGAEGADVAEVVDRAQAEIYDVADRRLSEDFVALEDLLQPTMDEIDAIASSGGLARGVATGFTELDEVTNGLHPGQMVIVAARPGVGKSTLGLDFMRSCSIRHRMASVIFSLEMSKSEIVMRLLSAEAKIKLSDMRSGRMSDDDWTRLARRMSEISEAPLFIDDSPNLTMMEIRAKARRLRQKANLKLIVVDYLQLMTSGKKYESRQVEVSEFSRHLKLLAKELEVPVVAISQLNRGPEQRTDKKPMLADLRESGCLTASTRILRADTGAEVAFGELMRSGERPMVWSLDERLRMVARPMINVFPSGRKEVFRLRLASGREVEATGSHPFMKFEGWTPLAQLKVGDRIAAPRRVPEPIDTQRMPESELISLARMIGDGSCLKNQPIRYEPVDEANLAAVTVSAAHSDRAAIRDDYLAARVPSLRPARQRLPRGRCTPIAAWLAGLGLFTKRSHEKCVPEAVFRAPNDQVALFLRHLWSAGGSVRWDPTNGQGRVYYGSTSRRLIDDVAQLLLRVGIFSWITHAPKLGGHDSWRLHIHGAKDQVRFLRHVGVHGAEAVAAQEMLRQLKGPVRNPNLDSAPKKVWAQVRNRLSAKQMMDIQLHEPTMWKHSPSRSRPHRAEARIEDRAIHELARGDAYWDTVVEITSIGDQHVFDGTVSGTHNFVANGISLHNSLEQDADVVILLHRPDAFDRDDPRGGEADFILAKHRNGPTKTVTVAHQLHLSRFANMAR

[13] = biological target: FAD-linked sulfhydryl oxidase ALR (Homo sapiens, UniProt P55789); test: ALR-catalysed DTT oxidation blockers – biochemical, H2O2 detection, luminescence, cherry-pick, dose response (AID 493248)
[14] = biological target: T6, Zinc finger protein mex-5 (Caenorhabditis elegans, UniProt Q9XUB2); test: potency of MEX-5 RNA-binding blockers – biochemical, C. elegans, fluorescence polarization, dose response (AID 1960)
T6 sequence (Q9XUB2 whole entry): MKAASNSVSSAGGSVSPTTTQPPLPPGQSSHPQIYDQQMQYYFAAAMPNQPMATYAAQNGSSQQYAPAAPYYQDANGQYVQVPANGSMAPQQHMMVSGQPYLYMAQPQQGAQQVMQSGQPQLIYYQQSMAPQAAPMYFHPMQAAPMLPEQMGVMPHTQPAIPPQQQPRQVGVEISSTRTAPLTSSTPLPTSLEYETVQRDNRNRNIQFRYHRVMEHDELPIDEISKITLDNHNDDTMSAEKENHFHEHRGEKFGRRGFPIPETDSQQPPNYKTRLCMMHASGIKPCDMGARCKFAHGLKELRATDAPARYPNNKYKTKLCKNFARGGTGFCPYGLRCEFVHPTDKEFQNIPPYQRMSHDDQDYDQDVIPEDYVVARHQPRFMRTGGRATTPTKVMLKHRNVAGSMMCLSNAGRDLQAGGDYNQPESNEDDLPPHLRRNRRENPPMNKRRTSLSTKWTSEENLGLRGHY

[15] = biological target: T7, RNA-binding protein pos-1 (Caenorhabditis elegans, UniProt G5EF15); test: disruptors of C. elegans POS-1 RNA interaction – biochemical, fluorescence polarization, dose response (AID 1964);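 note: purified POS-1 fused to maltose binding protein made in E. coli; potency of compounds blocking POS-1 binding to fluorescent RNA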
T7 sequence (G5EF15 whole entry): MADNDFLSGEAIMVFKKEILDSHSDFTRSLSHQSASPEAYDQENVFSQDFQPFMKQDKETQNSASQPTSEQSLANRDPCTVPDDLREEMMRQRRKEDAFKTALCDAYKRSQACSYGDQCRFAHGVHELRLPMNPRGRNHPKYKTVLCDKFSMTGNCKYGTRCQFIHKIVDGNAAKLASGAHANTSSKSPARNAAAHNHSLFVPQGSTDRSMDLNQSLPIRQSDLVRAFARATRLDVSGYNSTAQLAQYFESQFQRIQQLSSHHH

[16] = Luminescence Cell-Based Dose Retest to Confirm Inhibitors of Cancer Stem Cells. [Related pubchem assays (depositor defined):AID2717, AID2721]; assay type: functional; settings: Homo sapiens
[17] = biological target: Induced myeloid leukemia cell differentiation protein Mcl-1 (Homo sapiens, UniProt Q07820); assay type: functional
Chain of Induced myeloid leukemia cell differentiation protein Mcl-1 (Q07820 whole entry): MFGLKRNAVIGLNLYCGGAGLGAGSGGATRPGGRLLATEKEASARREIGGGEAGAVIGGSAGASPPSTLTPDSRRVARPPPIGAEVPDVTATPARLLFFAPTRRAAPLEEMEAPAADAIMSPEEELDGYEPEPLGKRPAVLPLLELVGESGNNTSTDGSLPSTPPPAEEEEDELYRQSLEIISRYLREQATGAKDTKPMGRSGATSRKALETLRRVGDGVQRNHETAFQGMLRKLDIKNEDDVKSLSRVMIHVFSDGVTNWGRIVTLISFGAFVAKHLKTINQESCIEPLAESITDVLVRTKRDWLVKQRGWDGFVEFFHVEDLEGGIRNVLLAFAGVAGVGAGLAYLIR

Chain of Beta Lactamase (Q932Y6 whole entry): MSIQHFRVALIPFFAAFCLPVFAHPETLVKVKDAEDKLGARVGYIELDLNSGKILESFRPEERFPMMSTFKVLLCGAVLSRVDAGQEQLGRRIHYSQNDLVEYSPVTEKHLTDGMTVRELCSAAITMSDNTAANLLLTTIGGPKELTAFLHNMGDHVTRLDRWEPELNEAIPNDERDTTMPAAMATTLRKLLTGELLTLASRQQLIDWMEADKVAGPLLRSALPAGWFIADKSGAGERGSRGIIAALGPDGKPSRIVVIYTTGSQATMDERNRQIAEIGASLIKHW
Chain of FAD-linked sulfhydryl oxidase ALR (P55789 whole entry): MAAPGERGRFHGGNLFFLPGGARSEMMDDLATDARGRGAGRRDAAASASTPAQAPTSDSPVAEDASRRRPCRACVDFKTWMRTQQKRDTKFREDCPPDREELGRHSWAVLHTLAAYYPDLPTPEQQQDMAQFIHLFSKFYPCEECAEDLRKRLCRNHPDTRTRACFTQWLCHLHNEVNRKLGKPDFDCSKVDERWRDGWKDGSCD

COc1ccc(-c2[nH][nH]c(=O)c2NC(=O)c2ccc([N+](=O)[O-])cc2)cc1
IC50 [1]: 47.2 µM (active)
IC50 [2]: 65.5 µM (inactive)

Clc1ccccc1-c1ccc2ncnc(NCc3ccc4c(c3)OCO4)c2c1
IC50 [3]: 83.3 µM (inactive)
IC50 [4]: 30 µM (inactive)

COc1cc(/C=N/NC(=S)Nc2cccc(S(=O)(=O)N(C)C)c2)ccc1O
IC50 [5]: 29 µM (active)
CC50 [6]: 100 µM (active)

O=C(NCc1ccc2c(c1)OCO2)c1nc(S(=O)(=O)Cc2ccccc2)ncc1Cl
EC50 (Protein RecA): 4.16 µM (active)
IC50 [7]: 4.89 µM (active)
AC50 [8]: 21.7 µM (active)
IC50 (Beta Lactamase): 32.5 µM (inactive)
AC50 [9]: 6.4 µM (active)
AC50 [10]: 21.7 µM (active)
AC50 [11]: 40.5 µM (active)
AC50 [12]: 2.27 µM (active)
AC50 [13]: 0.505 µM (active)

CSc1nnc(C)c(/C=C/NOCc2cccc(F)c2)n1
IC50 [1]: 69.9 µM (inactive)
IC50 [2]: 14 µM (active)

Cc1cc(-c2ccccc2)nc(N/N=C/c2ccc(O)cc2O)n1
IC50 [5]: 69.1 µM (active)
EC50 [14]: 54 µM (active)
EC50 [15]: > 300 µM (not active)
CC50 [6]: 100 µM (active)
AC50 [16]: 6.35 µM (active)

CCOC(=O)CSc1nc(N)c(C(=O)Nc2ccc(N(C)C)cc2)s1
IC50 [5]: 31.7 µM (active)
IC50 [17]: < 0.4 µM (active)
CC50 [6]: 100 µM (active)

CCNC(=O)O/N=C1\CCCCC1c1ccc([N+](=O)[O-])cc1[N+](=O)[O-] (configuration not stated)
IC50 [1]: 14.4 µM (active)
IC50 [2]: 27.2 µM (active)
